Data: patent publication US11917959B2, “Multi-ear system to enhance monocot plant yield” (Monsanto Technology LLC, priority 2015, dated 2024)

Test system: DH0 maize plants, Germplasm A
Experiment: Doubling efficiency after co-dominant ear induction (Example 2)
Type: in vivo
Conditions: for DE04 doubling efficiency / DE20 doubling efficiency / DE30 doubling efficiency / DE50 doubling efficiency: Germplasm A DH0, 60 mL 2.5% PBZ
Text: An F1 hybrid-derived haploid induction population derived from female inbred maize plant Germplasm A was germinated in soil and tended in standard greenhouse maize growing conditions for approximately seven days. Seedlings were then subjected to a bulk colchicine-based chromosome doubling treatment as described above. Following treatment, seedlings were transplanted into pots and tended in a greenhouse at standard greenhouse maize growing conditions to recover.
Twenty-nine days after the colchicine doubling treatment, 77 of the DH0 seedlings were subjected to a co-dominant ear induction treatment comprising the addition of 60 mL of 2.5% PBZ (v/v) in water, which was poured into the soil surrounding the roots of each plant. The seedlings were then tended in standard greenhouse maize growing conditions until they flowered, at which time each plant that produced pollen was self-pollinated. After approximately 3-4 weeks, ears were harvested and the kernels (DH1 seeds) that formed on the treated DH0 plants were counted to determine doubling efficiencies.
Doubling efficiencies (DE) were calculated under four different constraints, depending on the minimum number of kernels an ear had to produce in order to even be included in the calculation. DE04 represents the portion of all the doubled DH0 plants that produced a total of at least four seeds when all ears were considered. DE20 represents the portion of all the doubled DH0 plants that produced a total of at least 20 kernels when all ears were considered. Similarly, DE30 represents the portion of doubled DH0 plants that produced a total of at least 30 kernels when all ears were considered, and DE50 represents the portion of doubled DH0 plants that produced a total of at least 50 kernels when all ears were considered.
Furthermore, the above doubling efficiencies were calculated once by considering only the kernels that formed on the primary ear of each plant (Ear1), once by considering only the kernels that formed on the primary and secondary ear of each plant (Ear2), once by considering only the kernels that formed on the primary, secondary, and tertiary ear of each plant (Ear3), and finally by considering all the kernels that formed on all the ears of each plant (Earall).

[1] = Ear 2 (primary and secondary ear)
[2] = Ear 3 (primary, secondary, tertiary ear)

Q: For `CC(C)(C)[C@@H](O)[C@@H](Cc1ccc(Cl)cc1)n1cncn1` (relative stereo) [PBZ, (±)-(R*, R*)-beta-((4-chlorophenyl)methyl)-alpha-(1,1,-dimethylethyl)-1H-1,2,4,-triazole-1-ethanol], which DE04 doubling efficiency (Ear 1 only) is on record?
A: 71%

Q: What about the DE20 doubling efficiency (Ear 1 only) of the same molecule?
A: 37%

Q: And the DE30 doubling efficiency (Ear 1 only)?
A: 26%

Q: And the DE50 doubling efficiency (Ear 1 only)?
A: 23%

Q: What about the “reduction in DE between DE04 and DE20” value (Ear2) of the same molecule?
A: 22%

Q: And the DE04 doubling efficiency [1]?
A: 76%

Q: And the DE20 doubling efficiency [1]?
A: 59%

Q: And the DE30 doubling efficiency [1]?
A: 47%

Q: What about the DE50 doubling efficiency [1] of the same molecule?
A: 36%

Q: And the DE04 doubling efficiency [2]?
A: 76%

Q: And the DE20 doubling efficiency [2]?
A: 65%

Q: What about the DE30 doubling efficiency [2] of the same molecule?
A: 58%

Q: What about the DE50 doubling efficiency [2] of the same molecule?
A: 50%

Q: What about the DE04 doubling efficiency (Ear All) of the same molecule?
A: 76%

Q: And the DE20 doubling efficiency (Ear All)?
A: 68%

Q: And the DE30 doubling efficiency (Ear All)?
A: 58%

Q: And the DE50 doubling efficiency (Ear All)?
A: 52%
